Results as given in patent publication US8217043B2, “Compounds and methods for their use” (Fibrogen, Inc., priority 2008, dated 2012).

Biological target: T1, HIF-PH2 (EGLN1) (Homo sapiens, UniProt Q9GZT9)
T1 construct: made in house; host or cells: insect Hi5 cells
Assay: HIF-PH assay (14CO2 capture, peptide-dependent turnover)
Assay type: biochemical
Settings: for inhibition at 67 µM: Concentration 67 μM; for inhibition at 50 µM: Concentration 50 μM
Source text: Ketoglutaric acid α-[1-^14C]-sodium salt, alpha-ketoglutaric acid sodium salt, and HPLC purified peptide may be obtained from commercial sources, e.g., Perkin-Elmer (Wellesley Mass.), Sigma-Aldrich, and SynPep Corp. (Dublin Calif.), respectively. Peptides for use in the assay may be fragments of HIFα as described above or as disclosed in International Publication WO 2005/118836, incorporated by reference herein. HIF-PH, e.g., HIF-PH2 (EGLN1), can be expressed in, e.g., insect Hi5 cells, and partially purified, e.g., through a SP ion exchange chromatography column. Enzyme activity is determined by capturing ^14CO2 using an assay described by Kivirikko and Myllyla (1982, Methods Enzymol. 82:245-304). Assay reactions contain 50 mM HEPES (pH 7.4), 100 μM α-ketoglutaric acid sodium salt, 0.30 μCi/mL ketoglutaric acid α-[1-^14C]-sodium salt, 40 μM FeSO4, 1 mM ascorbate, 1541.8 units/mL Catalase, with or without 50 μM peptide substrate and various concentrations of compound of the invention. Reactions are initiated by addition of HIF-PH enzyme.
The peptide-dependent percent turnover is calculated by subtracting percent turnover in the absence of peptide from percent turnover in the presence of substrate peptide. Percent inhibition and IC50 are calculated using peptide-dependent percent turnover at given inhibitor concentrations. Calculation of IC50 values for each inhibitor is conducted using GraFit software (Erithacus Software Ltd., Surrey UK).
Representative compounds of the invention were analyzed using the HIF-PH assay described above. Table 1 presents enzyme inhibition data for exemplary compounds against HIF-PH2, a representative HIF prolyl hydroxylase. By inhibiting HIF prolyl hydroxylase, compounds of the invention stabilize HIFα, which then combines with HIFβ to form an active transcription factor that increases expression of various genes involved in numerous beneficial cellular processes.

T1 sequence (Q9GZT9 whole entry, species assumed): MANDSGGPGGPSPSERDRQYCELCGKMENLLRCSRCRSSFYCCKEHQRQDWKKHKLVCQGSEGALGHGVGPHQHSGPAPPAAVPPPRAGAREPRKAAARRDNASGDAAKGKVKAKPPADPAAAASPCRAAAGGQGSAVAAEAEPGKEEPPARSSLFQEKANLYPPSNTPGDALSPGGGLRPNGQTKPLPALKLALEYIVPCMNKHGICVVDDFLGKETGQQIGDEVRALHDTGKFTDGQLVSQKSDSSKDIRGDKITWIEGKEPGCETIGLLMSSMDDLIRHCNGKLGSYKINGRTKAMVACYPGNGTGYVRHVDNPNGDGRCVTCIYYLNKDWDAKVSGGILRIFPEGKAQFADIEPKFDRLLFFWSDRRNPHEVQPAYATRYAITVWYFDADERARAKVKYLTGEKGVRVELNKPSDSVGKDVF

| Compound | inhibition at 67 µM [%] | inhibition at 50 µM [%] |
| --- | --- | --- |
| COc1ccc(Cn2c(=O)c(C(=O)NCC(=O)O)c(O)c3cc(Cl)cn32)cc1 [Example 31, {[6-Chloro-1-(4-methoxy-benzyl)-4-hydroxy-2-oxo-1,2-dihydro-pyrrolo[1,2-b]pyridazine-3-carbonyl]-amino}-acetic acid] | 100 | – |
| COc1ccc(Cn2c(=O)c(C(=O)N[C@@H](C)C(=O)O)c(O)c3cc(Cl)cn32)cc1 [Example 32, 2-(S)-{[6-Chloro-1-(4-methoxy-benzyl)-4-hydroxy-2-oxo-1,2-dihydro-pyrrolo[1,2-b]pyridazine-3-carbonyl]-amino}-propionic acid] | 97 | – |
| CC[C@H](NC(=O)c1c(O)c2cc(Cl)cn2n(Cc2ccc(OC)cc2)c1=O)C(=O)O [Example 33, 2-(S)-{[6-Chloro-1-(4-methoxy-benzyl)-4-hydroxy-2-oxo-1,2-dihydro-pyrrolo[1,2-b]pyridazine-3-carbonyl]-amino}-butyric acid] | 88 | – |
| CC[C@H](NC(=O)c1c(O)c2cc(Cl)cn2n(Cc2ccc(F)cc2)c1=O)C(=O)O [Example 34, 2-(S)-{[6-Chloro-1-(4-fluoro-benzyl)-4-hydroxy-2-oxo-1,2-dihydro-pyrrolo[1,2-b]pyridazine-3-carbonyl]-amino}-butyric acid] | 86 | – |
| C[C@H](NC(=O)c1c(O)c2cc(Cl)cn2n(Cc2ccc(-c3ccccc3)cc2)c1=O)C(=O)O [Example 35, 2-(S)-[(1-Biphenyl-4-ylmethyl-6-chloro-4-hydroxy-2-oxo-1,2-dihydro-pyrrolo[1,2-b]pyridazine-3-carbonyl)-amino]-propionic acid] | 100 | – |
| C[C@@H](NC(=O)c1c(O)c2cc(Cl)cn2n(Cc2ccc(-c3ccccc3)cc2)c1=O)C(=O)O [Example 36, 2-(R)-{[6-Chloro-1-(4-phenyl-benzyl)-4-hydroxy-2-oxo-1,2-dihydro-pyrrolo[1,2-b]pyridazine-3-carbonyl]-amino}-propionic acid] | 98 | – |
| O=C(O)CNC(=O)c1c(O)c2cc(-c3ccccc3)cn2n(Cc2ccc(C(F)(F)F)cc2)c1=O [Example 37, {[4-Hydroxy-2-oxo-6-phenyl-1-(4-trifluoromethyl-benzyl)-1,2-dihydro-pyrrolo[1,2-b]pyridazine-3-carbonyl]-amino}-acetic acid] | 99 | – |
| O=C(O)CNC(=O)c1c(O)c2cc(Cl)cn2n(Cc2cccnc2)c1=O [Example 38, [(6-Chloro-4-hydroxy-2-oxo-1-pyridin-3-ylmethyl-1,2-dihydro-pyrrolo[1,2-b]pyridazine-3-carbonyl)-amino]-acetic acid] | 99 | – |
| C[C@H](NC(=O)c1c(O)c2cc(Cl)cn2n(Cc2cccnc2)c1=O)C(=O)O [Example 39, 2-(S)-[(6-Chloro-4-hydroxy-2-oxo-1-pyridin-3-ylmethyl-1,2-dihydro-pyrrolo[1,2-b]pyridazine-3-carbonyl)-amino]-propionic acid] | 97 | – |
| O=C(O)CNC(=O)c1c(O)c2cc(Cl)cn2n(Cc2ccccn2)c1=O [Example 40, [(6-Chloro-4-hydroxy-2-oxo-1-pyridin-2-ylmethyl-1,2-dihydro-pyrrolo[1,2-b]pyridazine-3-carbonyl)-amino]-acetic acid] | – | 95 |
| C[C@H](NC(=O)c1c(O)c2cc(Cl)cn2n(Cc2ccccn2)c1=O)C(=O)O [Example 41, 2-(S)-[(6-Chloro-4-hydroxy-2-oxo-1-pyridin-2-ylmethyl-1,2-dihydro-pyrrolo[1,2-b]pyridazine-3-carbonyl)-amino]-propionic acid] | – | 91 |
| O=C(O)CNC(=O)c1c(O)c2cc(Cl)c(Cl)n2n(Cc2ccc(F)cc2)c1=O [Example 42, {[6,7-Dichloro-1-(4-fluoro-benzyl)-4-hydroxy-2-oxo-1,2-dihydro-pyrrolo[1,2-b]pyridazine-3-carbonyl]-amino}-acetic acid] | – | 95 |
| O=C(O)CNC(=O)c1c(O)c2cc3ccc(C(F)(F)F)cc3n2n(Cc2ccc(F)cc2)c1=O [Example 43, {[4-(4-Fluoro-benzyl)-1-hydroxy-3-oxo-6-trifluoromethyl-3,4-dihydro-4,4a-diaza-fluorene-2-carbonyl]-amino}-acetic acid] | – | 99 |
| C[C@H](NC(=O)c1c(O)c2cc3ccc(C(F)(F)F)cc3n2n(Cc2ccc(F)cc2)c1=O)C(=O)O [Example 44, 2-(S)-{[4-(4-Fluoro-benzyl)-1-hydroxy-3-oxo-6-trifluoromethyl-3,4-dihydro-4,4a-diaza-fluorene-2-carbonyl]-amino}-propionic acid] | 89 | – |
